In ChEMBL document CHEMBL5465560, “Selectivity Literature for EUbOPEN Chemogenomic Library” (2024):

Columns and labels:
[1] = target: Casein kinase I isoform alpha (Homo sapiens, UniProt P48729); assay: Selectivity interaction (KinomeScan (DiscoverX)) EUB0001049a CSNK1A1; conditions: at 1 µM
[2] = target: Cyclin-dependent kinase 1/cyclin B (Homo sapiens) (UniProt P06493+P14635+Q8WWL7+O95067); assay: Selectivity interaction (Millipore kinase profiler) EUB0000124b CDK1; format: protein-complex assay; conditions: at 10 µM
[3] = target: T1, Ephrin type-A receptor 6 (Homo sapiens) (UniProt Q9UF33); assay: Selectivity interaction (KinomeScan (DiscoverX)) EUB0000666a EPHA6; conditions: at 10 µM
T1 sequence (whole entry): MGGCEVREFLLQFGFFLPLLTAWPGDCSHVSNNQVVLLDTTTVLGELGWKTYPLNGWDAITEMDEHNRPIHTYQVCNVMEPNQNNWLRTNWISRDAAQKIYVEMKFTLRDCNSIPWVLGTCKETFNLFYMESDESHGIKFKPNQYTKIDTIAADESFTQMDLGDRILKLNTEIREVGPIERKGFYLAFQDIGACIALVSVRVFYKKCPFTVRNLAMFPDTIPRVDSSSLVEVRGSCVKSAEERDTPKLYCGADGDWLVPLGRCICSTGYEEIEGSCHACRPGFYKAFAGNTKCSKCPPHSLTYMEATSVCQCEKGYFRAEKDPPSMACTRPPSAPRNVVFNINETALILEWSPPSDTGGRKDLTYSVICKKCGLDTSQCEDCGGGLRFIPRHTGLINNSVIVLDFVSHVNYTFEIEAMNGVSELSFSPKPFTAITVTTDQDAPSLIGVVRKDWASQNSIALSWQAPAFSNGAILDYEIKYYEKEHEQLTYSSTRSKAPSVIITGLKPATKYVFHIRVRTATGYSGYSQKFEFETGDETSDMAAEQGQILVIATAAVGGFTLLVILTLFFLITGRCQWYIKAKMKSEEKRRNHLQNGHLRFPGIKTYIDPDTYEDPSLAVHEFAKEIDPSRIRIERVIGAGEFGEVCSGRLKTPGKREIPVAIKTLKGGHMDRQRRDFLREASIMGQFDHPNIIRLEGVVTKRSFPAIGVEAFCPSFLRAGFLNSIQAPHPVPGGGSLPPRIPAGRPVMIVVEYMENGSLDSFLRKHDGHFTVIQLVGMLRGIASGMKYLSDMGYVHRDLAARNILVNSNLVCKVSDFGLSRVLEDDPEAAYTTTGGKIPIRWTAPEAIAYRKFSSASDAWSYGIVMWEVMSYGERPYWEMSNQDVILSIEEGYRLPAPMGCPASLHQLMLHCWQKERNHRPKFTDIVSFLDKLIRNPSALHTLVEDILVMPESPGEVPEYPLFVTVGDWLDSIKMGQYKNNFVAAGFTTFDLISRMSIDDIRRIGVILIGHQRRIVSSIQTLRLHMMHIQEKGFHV

[4] = target: Casein kinase I isoform epsilon (Homo sapiens, UniProt P49674); assay: Selectivity interaction (KinomeScan (DiscoverX)) EUB0001079a CSNK1E; conditions: at 1 µM
[5] = target: Calcium/calmodulin-dependent protein kinase type II subunit beta (Homo sapiens) (UniProt Q13554); assay: Selectivity interaction (ActivX KiNativ screen (kinase selectivity in THP-1 cell lysates)) EUB0000639a CAMK2B; format: subcellular; conditions: lysate, at 0.04 µM
[6] = target: T2, Serine/threonine-protein kinase STK11 (Homo sapiens) (UniProt Q15831); assay: Selectivity interaction (ActivX KiNativ screen (kinase selectivity in THP-1 cell lysates)) EUB0000639a STK11; format: subcellular; conditions: lysate
T2 sequence (whole entry): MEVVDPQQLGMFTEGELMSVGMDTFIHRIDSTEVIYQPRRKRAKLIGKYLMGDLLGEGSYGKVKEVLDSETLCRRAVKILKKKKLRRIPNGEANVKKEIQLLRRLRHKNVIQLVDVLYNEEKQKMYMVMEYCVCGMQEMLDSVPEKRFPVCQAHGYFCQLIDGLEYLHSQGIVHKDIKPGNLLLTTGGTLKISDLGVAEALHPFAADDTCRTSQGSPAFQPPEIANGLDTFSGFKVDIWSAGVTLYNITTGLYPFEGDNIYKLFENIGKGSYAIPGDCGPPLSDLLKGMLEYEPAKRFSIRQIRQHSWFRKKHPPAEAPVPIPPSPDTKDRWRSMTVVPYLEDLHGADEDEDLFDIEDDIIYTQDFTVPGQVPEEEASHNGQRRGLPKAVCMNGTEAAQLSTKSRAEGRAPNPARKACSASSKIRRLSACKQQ

[7] = target: T3, Serine/threonine-protein kinase 17A (Homo sapiens) (UniProt Q9UEE5); assay: Selectivity interaction (Ambit KINOMEscan and KiNATiv profiling in Jurkat cells) EUB0000090b STK17A; format: cell-based; conditions: at 1 µM
T3 sequence (whole entry): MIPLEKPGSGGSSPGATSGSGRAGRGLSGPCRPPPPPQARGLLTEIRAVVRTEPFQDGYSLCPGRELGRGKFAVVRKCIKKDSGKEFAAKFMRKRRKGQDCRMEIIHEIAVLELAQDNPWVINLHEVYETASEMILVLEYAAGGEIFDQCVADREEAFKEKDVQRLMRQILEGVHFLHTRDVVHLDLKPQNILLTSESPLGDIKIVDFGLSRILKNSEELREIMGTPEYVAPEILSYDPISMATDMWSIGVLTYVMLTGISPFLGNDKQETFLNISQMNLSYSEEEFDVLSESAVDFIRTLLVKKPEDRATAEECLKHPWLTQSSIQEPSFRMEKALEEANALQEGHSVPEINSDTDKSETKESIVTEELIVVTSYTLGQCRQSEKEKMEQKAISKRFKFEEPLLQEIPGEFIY

[8] = target: Non-receptor tyrosine-protein kinase TYK2 (Homo sapiens, UniProt P29597); assay: Selectivity interaction (KinomeScan (DiscoverX)) EUB0000045b TYK2
[9] = target: Tyrosine-protein kinase Blk (Homo sapiens) (UniProt P51451); assay: Selectivity interaction (Upstate Kinase Profiler service (Millipore)) EUB0000056c BLK; conditions: at 1 µM
Sequence of Tyrosine-protein kinase Blk (Homo sapiens) (P51451 2-505 limits assumed): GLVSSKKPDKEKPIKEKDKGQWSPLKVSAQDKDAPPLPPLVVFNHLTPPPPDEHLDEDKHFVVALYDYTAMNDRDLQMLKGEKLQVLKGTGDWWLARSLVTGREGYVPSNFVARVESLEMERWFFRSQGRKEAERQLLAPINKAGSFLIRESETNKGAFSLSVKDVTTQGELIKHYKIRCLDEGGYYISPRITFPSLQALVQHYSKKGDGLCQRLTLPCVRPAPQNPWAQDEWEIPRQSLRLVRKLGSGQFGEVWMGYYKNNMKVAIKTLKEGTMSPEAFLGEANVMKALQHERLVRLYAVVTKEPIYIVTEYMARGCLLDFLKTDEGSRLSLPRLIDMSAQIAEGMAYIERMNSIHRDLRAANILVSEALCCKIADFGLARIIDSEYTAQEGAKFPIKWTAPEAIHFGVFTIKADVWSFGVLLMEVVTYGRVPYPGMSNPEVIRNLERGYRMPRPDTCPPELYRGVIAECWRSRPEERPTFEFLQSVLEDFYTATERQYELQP

Sequence of Non-receptor tyrosine-protein kinase TYK2 (P29597 whole entry): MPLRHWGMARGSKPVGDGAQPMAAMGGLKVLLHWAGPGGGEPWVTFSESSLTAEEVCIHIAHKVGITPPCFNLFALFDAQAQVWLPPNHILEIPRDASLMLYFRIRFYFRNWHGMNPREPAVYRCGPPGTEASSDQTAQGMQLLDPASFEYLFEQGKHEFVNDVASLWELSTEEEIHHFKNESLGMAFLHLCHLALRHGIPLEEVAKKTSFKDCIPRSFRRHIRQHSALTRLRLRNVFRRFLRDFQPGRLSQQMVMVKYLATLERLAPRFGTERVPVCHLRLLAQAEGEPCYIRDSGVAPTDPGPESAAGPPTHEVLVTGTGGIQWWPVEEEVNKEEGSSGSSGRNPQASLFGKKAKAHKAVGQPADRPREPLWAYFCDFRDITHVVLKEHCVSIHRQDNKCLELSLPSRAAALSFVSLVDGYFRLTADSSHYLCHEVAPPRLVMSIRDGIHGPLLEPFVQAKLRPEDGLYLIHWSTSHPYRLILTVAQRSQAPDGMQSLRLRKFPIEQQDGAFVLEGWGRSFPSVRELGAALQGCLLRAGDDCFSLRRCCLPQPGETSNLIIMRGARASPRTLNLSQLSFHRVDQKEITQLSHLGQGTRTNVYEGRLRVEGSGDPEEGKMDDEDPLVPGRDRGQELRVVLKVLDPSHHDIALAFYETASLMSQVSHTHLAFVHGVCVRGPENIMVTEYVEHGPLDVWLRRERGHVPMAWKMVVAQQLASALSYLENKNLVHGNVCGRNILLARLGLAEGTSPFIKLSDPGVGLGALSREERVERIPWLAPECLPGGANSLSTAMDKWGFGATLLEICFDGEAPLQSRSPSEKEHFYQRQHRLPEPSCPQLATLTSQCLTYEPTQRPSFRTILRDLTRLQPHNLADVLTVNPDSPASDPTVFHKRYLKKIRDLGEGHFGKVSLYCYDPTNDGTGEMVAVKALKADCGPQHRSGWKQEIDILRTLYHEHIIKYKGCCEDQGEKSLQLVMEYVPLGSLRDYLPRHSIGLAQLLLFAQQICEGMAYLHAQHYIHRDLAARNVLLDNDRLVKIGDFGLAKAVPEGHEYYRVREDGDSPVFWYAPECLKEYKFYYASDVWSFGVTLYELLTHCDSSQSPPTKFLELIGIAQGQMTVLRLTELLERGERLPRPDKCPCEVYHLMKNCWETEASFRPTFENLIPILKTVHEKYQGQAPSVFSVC
Sequence of Calcium/calmodulin-dependent protein kinase type II subunit beta (Homo sapiens) (Q13554 whole entry): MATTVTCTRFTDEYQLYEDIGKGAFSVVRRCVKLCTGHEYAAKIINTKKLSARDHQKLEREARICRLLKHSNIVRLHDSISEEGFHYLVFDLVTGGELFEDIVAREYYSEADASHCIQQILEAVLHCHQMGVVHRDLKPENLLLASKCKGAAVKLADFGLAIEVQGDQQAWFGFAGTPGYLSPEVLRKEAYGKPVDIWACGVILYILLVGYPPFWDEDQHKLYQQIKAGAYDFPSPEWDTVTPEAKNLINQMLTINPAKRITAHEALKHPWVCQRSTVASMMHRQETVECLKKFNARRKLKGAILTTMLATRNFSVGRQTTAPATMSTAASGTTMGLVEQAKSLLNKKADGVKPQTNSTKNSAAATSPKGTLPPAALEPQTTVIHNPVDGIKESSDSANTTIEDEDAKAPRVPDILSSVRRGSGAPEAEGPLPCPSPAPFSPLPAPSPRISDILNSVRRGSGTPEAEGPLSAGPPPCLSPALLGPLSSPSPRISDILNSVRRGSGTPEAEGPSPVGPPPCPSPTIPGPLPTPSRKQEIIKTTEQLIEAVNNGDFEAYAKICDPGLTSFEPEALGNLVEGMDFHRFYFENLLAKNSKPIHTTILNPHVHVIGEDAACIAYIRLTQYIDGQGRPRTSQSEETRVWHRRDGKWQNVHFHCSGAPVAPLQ
Sequence of Casein kinase I isoform alpha (P48729 2-337 limits assumed): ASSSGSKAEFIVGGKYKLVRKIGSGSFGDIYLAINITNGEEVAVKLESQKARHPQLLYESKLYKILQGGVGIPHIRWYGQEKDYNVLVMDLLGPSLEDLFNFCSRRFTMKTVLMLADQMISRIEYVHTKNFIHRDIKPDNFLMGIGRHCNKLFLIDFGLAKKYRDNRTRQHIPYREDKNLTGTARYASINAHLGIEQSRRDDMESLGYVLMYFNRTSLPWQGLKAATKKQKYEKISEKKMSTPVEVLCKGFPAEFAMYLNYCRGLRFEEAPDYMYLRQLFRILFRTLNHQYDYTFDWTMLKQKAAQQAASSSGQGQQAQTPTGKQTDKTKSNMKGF
Sequence of Casein kinase I isoform epsilon (P49674 whole entry, looked up, canonical isoform): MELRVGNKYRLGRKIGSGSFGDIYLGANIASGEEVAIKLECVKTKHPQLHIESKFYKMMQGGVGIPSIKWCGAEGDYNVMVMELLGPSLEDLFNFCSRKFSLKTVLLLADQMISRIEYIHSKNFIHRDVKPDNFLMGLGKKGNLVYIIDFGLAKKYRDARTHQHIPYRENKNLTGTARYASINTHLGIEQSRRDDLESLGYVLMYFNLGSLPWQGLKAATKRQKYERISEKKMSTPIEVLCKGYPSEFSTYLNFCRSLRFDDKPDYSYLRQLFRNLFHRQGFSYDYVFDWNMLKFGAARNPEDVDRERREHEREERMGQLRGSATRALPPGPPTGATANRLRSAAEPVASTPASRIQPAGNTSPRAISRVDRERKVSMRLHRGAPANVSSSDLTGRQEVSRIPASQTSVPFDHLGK

**Q.** With `COc1cc(Nc2nc(C)cc(-c3cnn4nc(OC)ccc34)n2)cc(C(F)(F)F)c1` as the molecule, how does the % of control [1] read?
**A.** Its % of control is 77%.

**Q.** `CC(=O)Nc1cccc(-n2c(=O)n(C3CC3)c(=O)c3c(Nc4ccc(I)cc4F)n(C)c(=O)c(C)c32)c1` was tested. Which % of control [2] did it give?
**A.** The % of control was 104%.

**Q.** For `O=C(NOC[C@H](O)CO)c1ccc(F)c(F)c1Nc1ccc(I)cc1F`, which % of control [3] is on record?
**A.** Its % of control is 94%.

**Q.** How did the % of control [4] turn out when `Nc1cnc(N2CCc3cc(S(=O)(=O)Nc4c(F)cc(Cl)cc4F)cc(N4CCCC4=O)c32)nc1` [TP-020n] was run?
**A.** Its % of control is 89%.

**Q.** With `CC[C@@H]1[C@H](F)C(=O)N[C@@H]1COc1nccc2cc(C(N)=O)c(OC)cc12` [ZIMLOVISERTIB] as the molecule, how does the % of inhibition [5] read?
**A.** Its % of inhibition is 12.8%.

**Q.** And the % of inhibition ([6]; at 0.01 µM)?
**A.** Its % of inhibition is -0.5%.

**Q.** And the % of inhibition ([6]; at 0.04 µM)?
**A.** Its % of inhibition is 12.2%.

**Q.** And the % of inhibition ([6]; at 0.2 µM)?
**A.** Its % of inhibition is 34.8%.

**Q.** What about the % of inhibition ([6]; at 1 µM) of the same molecule?
**A.** Its % of inhibition is 58.5%.

**Q.** And the % of inhibition ([6]; at 5 µM)?
**A.** The % of inhibition was 85.1%.

**Q.** With `CN(C)C/C=C/C(=O)Nc1ccc(C(=O)N2CCCC(Nc3ncc(Cl)c(-c4c[nH]c5ccccc45)n3)C2)cc1` (centres undefined) as the molecule, how does the % of control [7] read?
**A.** Its % of control is 70%.

**Q.** With `C=CC(=O)Nc1cc(-n2c(=O)ccc3cnc4ccc(-c5ccc(NS(C)(=O)=O)cc5)cc4c32)ccc1C` as the molecule, how does the % of control ([8]; at 1 µM) read?
**A.** Its % of control is 100%.

**Q.** And the % of control ([8]; at 10 µM)?
**A.** The % of control was 100%.

**Q.** With `Cc1ccc(-c2ccc3c(ccc4sc5c(c43)NC[C@@H](C)NC5=O)n2)cn1` as the molecule, how does the % of inhibition [9] read?
**A.** The % of inhibition was 14%.
